The target of this assay is T1, Human NMDA (NR1/NR2B) Receptor (Homo sapiens, UniProt Q13224).
T1 construct: host or cells: HEK293
T1 sequence (Q13224 27-1484, other chains not shown): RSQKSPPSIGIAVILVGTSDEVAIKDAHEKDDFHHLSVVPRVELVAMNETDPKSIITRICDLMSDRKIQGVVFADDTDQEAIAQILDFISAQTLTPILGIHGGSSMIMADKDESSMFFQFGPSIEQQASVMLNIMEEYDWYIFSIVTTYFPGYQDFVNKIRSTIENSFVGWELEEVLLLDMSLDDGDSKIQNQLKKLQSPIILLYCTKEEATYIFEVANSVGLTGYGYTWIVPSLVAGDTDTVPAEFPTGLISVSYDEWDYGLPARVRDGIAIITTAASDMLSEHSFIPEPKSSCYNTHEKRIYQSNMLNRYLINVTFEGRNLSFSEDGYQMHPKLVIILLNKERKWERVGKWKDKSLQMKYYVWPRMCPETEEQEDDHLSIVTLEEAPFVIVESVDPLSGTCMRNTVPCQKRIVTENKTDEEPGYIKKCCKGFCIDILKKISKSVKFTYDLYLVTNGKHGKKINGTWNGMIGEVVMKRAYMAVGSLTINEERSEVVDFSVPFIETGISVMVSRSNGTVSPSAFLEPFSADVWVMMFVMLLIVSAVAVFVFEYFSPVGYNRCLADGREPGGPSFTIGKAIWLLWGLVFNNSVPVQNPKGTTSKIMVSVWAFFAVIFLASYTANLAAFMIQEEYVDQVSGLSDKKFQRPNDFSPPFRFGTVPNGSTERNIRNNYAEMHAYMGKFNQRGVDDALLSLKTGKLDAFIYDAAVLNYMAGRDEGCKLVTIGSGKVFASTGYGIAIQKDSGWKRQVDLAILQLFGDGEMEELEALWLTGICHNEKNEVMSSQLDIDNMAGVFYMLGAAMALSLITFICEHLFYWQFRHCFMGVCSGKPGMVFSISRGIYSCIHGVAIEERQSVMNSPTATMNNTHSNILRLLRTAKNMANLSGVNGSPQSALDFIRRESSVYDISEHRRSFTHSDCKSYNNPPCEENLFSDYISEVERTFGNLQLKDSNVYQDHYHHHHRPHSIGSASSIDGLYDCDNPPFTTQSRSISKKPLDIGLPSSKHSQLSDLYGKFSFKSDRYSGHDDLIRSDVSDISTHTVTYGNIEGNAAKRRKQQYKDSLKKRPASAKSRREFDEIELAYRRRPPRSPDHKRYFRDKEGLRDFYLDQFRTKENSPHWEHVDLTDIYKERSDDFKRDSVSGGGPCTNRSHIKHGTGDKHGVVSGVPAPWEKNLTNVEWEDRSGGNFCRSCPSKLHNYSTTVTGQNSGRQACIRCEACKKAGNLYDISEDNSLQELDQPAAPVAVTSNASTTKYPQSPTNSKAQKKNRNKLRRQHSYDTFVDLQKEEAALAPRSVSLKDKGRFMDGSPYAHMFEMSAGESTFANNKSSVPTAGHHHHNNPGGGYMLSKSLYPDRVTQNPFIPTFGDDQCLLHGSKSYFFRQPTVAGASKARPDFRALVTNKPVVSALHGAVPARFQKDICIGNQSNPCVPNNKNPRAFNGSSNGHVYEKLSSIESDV
As to the kind of experiment: NR2B Ca2+ influx assay. The class given is cell-based. Conditions: 10 μM compound; HEK293 cells expressing GRIN1 and GRIN2B; glutamic acid/glycine-induced Ca2+ influx, Fluo-4 fluorescence; read-out: inhibitory rate (10 μM compound concentration). From the text: Experimental Example 1 NR2B Ca^2+ Influx Assay
To confirm the “antagonistic action on an NMDA receptor containing the NR2B subunit” of the compound of the present invention, human embryonic kidney cell expressing the “NMDA receptor composed of four subunits including 2 sets of heterodimers of NR1 and NR2B”, specifically HEK293 cell expressing human glutamate ionotropic receptor NMDA type subunit 1 (GRIN1) and human glutamate ionotropic receptor NMDA type subunit 2B (GRIN2B), was used and the activation suppressive effect (inhibitory activity) on the receptors by the compound of the present invention was measured.
HEK293 cells that express GRIN1 and GRIN2B were purchased from ChanTest (Human NMDA (NR1/NR2B) Receptor-expressing, stable replicating cell line (HEK293) catalog No. CT6121).
As an index of the NMDA receptor activation, intracellular calcium ion (Ca^2+) influx caused by the binding of glycine and glutamic acid with NR1 and NR2B, respectively, was used.
HEK293 cells that express GRIN1 and GRIN2B were cultured in a cell culture flask in DMEM/F-12 (COSMO BIO, 10-092-CM) medium added with 10% FBS (fetal bovine serum, AusGene), 100 units/mL penicillin, 100 μg/mL streptomycin, 500 μg/mL neomycin, 100 μg/mL Zeocin (registered trade mark, Invitrogen), 5 μg/mL Blasticidin, in an incubator (37° C., 5% CO2).
The cells were detached from flask with trypsin the day before the assay, suspended in a seeding medium (DMEM (Invitrogen, 31053) added with 10% FBS, 100 units/mL penicillin, 100 μg/mL streptomycin) at 8×10^5 cells/mL, seeded by 25 μL/well in a 384-well plate (Falcon, 356663) at 20000 cells/well, and cultured overnight in an incubator. On the day of the assay, tetracycline (Wako Pure Chemical Industries, Ltd., 209-16561) was diluted with the seeding medium at 2 μg/mL, added at 25 μL/well to the plate seeded with the cells, and cultured for 2 hr in an incubator. Thereafter, the medium was removed, and the cells were washed with 50 μL/well assay buffer (137 mM NaCl, 4 mM KCl, 1.8 mM CaCl2, 10 mM HEPES (pH 7.2), 10 mM Glucose, 0.1% BSA). Then, a loading buffer (assay buffer added with 2.5 μM Fluo-4AM, 2 mM Amaranth, 1 mM Tartrazine) was added at 25 μL/well, and incubation was performed in the incubator for 30 min, and at room temperature for 15 min. A solution (25 μL/well) of the Example compound diluted with the above-mentioned assay buffer at 30 μM (final concentration 10 μM) was added, and the cells were stood for 15 min at room temperature. Using FDSS7000EX/μCELL (Hamamatsu Photonics K.K.), 25 μL/well of an assay buffer containing 30 μM glutamic acid, 30 μM glycine was added, and the fluorescence signal at wavelength of Excitation 480 nm, Emission 540 nm was measured every 3 seconds for 5 min. The inhibitory activity was calculated as a relative activity value (inhibitory rate) that inhibits 100% of the cumulative value of the fluorescence value of a well added with an assay buffer free of glutamic acid, glycine, relative to the cumulative value of the fluorescence value of each well.
For the compound `O=C(NCc1cnccc1OC(F)F)c1cnc(OC(F)F)c(Cl)c1` [Example 111, 5-chloro-6-(difluoromethoxy)-N-[(4-(difluoromethoxy)pyridin-3-yl)methyl]pyridine-3-carboxamide], the inhibition at 10 µM was found to be 94%.
Turning to `COc1c(F)cc(C(=O)NCc2cncc(F)c2OC)cc1F` [Example 90, 3,5-difluoro-N-[(5-fluoro-4-methoxypyridin-3-yl)methyl]-4-methoxybenzamide], the inhibition at 10 µM was found to be 95%.
`COc1c(F)cc(C(=O)NCc2cncnc2OC2CC2)cc1F` [Example 74, N-{[4-(cyclopropyloxy)-pyrimidin-5-yl]methyl}-3,5-difluoro-4-methoxybenzamide]: the inhibition at 10 µM was 90%.
For `CC(F)(F)c1ncc(C(=O)NCc2cncnc2OC2CC2)cc1F` [Example 91, N-{[4-(cyclopropyloxy)-pyrimidin-5-yl]methyl}-6-(1,1-difluoroethyl)-5-fluoropyridine-3-carboxamide] the value was 91%; for `COc1ncncc1CNC(=O)c1cnc(C2CC2)c(F)c1` [Example 82, 6-cyclopropyl-5-fluoro-N-[(4-methoxypyrimidin-5-yl)methyl]pyridine-3-carboxamide], 89%.
For `Cc1c(F)cncc1CNC(=O)c1cc(F)c(OC(F)F)c(F)c1` [Example 68, 4-(difluoromethoxy)-3,5-difluoro-N-[(5-fluoro-4-methylpyridin-3-yl)methyl]benzamide] the value was 93%.
As for `CCOc1ncc(C(=O)NCc2cncnc2OC)cc1Cl` [Example 85, 5-chloro-6-ethoxy-N-[(4-methoxypyrimidin-5-yl)methyl]pyridine-3-carboxamide], the inhibition at 10 µM was 87%.
Consider `O=C(NCc1cncnc1OC1CC1)c1ccc(OC(F)F)c(F)c1` [Example 77, N-{[4-(cyclopropyloxy)-pyrimidin-5-yl]methyl}-4-(difluoromethoxy)-3-fluorobenzamide], for which the inhibition at 10 µM is 94%.
Then `O=C(NCc1cncnc1C1CC1)c1cnc(OC(F)F)c(F)c1` [Example 23, N-[(4-cyclopropylpyrimidin-5-yl)methyl]-6-(difluoromethoxy)-5-fluoropyridine-3-carboxamide], with 95%; and `COc1ncncc1CNC(=O)c1cnc(C2CC2)c(Cl)c1` [Example 83, 5-chloro-6-cyclopropyl-N-[(4-methoxypyrimidin-5-yl)methyl]pyridine-3-carboxamide], with 92%.
As for `Cc1ccncc1CNC(=O)c1cc(F)c(C(F)F)c(F)c1` [Example 57, 4-(difluoromethyl)-3,5-difluoro-N-[(4-methylpyridin-3-yl)methyl]benzamide], the inhibition at 10 µM was 78%.
For `O=C(NCc1cncnc1OC1CC1)c1cnc(OC(F)F)c(Cl)c1` [Example 78, 5-chloro-N-{[4-(cyclopropyloxy)pyrimidin-5-yl]methyl}-6-(difluoromethoxy)pyridine-3-carboxamide] the value was 94%.
For `Cc1ccncc1CNC(=O)c1cnc(OC(F)F)c(F)c1` [Example 18, 6-(difluoromethoxy)-5-fluoro-N-[(4-methylpyridin-3-yl)methyl]pyridine-3-carboxamide] the value was 96%; for `Cc1ccncc1CNC(=O)c1ccc(OC(F)F)c(F)c1` [Example 48, 4-(difluoromethoxy)-3-fluoro-N-[(4-methylpyridin-3-yl)methyl]benzamide], 88%; for `O=C(NCc1cncnc1OC1CC1)c1cc(F)c(OC(F)F)c(F)c1` [Example 76, N-{[4-(cyclopropyloxy)-pyrimidin-5-yl]methyl}-4-(difluoromethoxy)-3,5-difluorobenzamide], 95%.
Take `Cc1ccncc1CNC(=O)c1cnc(C(C)(F)F)c(Cl)c1` [Example 97, 5-chloro-6-(1,1-difluoroethyl)-N-[(4-methylpyridin-3-yl)methyl]pyridine-3-carboxamide]: the inhibition at 10 µM is 92%.
For `CCOc1ncc(C(=O)NCc2cnccc2C)cc1Cl` [Example 65, 5-chloro-6-ethoxy-N-[(4-methylpyridin-3-yl)methyl]pyridine-3-carboxamide] the value was 93%; for `CCOc1ncncc1CNC(=O)c1cnc(OC(F)F)c(Cl)c1` [Example 88, 5-chloro-6-(difluoromethoxy)-N-[(4-ethoxypyrimidin-5-yl)methyl]pyridine-3-carboxamide], 92%; for `O=C(NCc1cnccc1C(F)(F)F)c1cnc(OC(F)F)c(F)c1` [Example 16, 6-(difluoromethoxy)-5-fluoro-N-{[4-(trifluoromethyl)pyridin-3-yl]methyl}pyridine-3-carboxamide], 94%.
For `O=C(NCc1cnccc1OC(F)F)c1ccc(OC(F)(F)F)c(F)c1` [Example 112, N-[(4-(difluoromethoxy)-pyridin-3-yl)methyl]-3-fluoro-4-(trifluoromethoxy)-benzamide] the value was 96%; for `Cc1ccncc1CNC(=O)c1csc(C(F)F)c1` [Example 100, 5-(difluoromethyl)-N-[(4-methylpyridin-3-yl)methyl]thiophene-3-carboxamide], 72%; for `COc1ncncc1CNC(=O)c1ccc(OC(F)F)cc1` [Example 25, 4-(difluoromethoxy)-N-[(4-methoxypyrimidin-5-yl)methyl]benzamide], 88%.
For `Cc1c(F)cncc1CNC(=O)c1cnc(C2CC2(F)F)c(Cl)c1` (stereo not drawn) [Example 104, 5-chloro-6-(2,2-difluorocyclopropyl)-N-[(5-fluoro-4-methylpyridin-3-yl)methyl]pyridine-3-carboxamide] the value was 95%; for `Cc1ccncc1CNC(=O)c1ccc(OC(F)(F)F)cc1` [Example 4, N-[(4-methylpyridin-3-yl)methyl]-4-(trifluoromethoxy)benzamide], 96%.
As for `CCOc1ncc(C(=O)NCc2cnccc2C)cc1F` [Example 45, 6-ethoxy-5-fluoro-N-[(4-methylpyridin-3-yl)methyl]pyridine-3-carboxamide], the inhibition at 10 µM was determined as 91%.
For `Cc1ccncc1CNC(=O)c1ccc(OC(F)(F)F)c(F)c1` [Example 49, 3-fluoro-N-[(4-methylpyridin-3-yl)methyl]-4-(trifluoromethoxy)-benzamide], the inhibition at 10 µM was determined as 94%.
For `CCOc1ncncc1CNC(=O)c1cnc(OC(F)F)c(F)c1` [Example 24, 6-(difluoromethoxy)-N-[(4-ethoxypyrimidin-5-yl)methyl]-5-fluoropyridine-3-carboxamide] the value was 95%.
In the case of `CC(F)(F)c1ccncc1CNC(=O)c1cnc(OC(F)F)c(F)c1` [Example 43, N-{[4-(1,1-difluoroethyl)pyridin-3-yl]methyl}-6-(difluoromethoxy)-5-fluoropyridine-3-carboxamide], the inhibition at 10 µM worked out at 90%.
Then `CCOc1ncncc1CNC(=O)c1cc(F)c(OC(F)F)c(F)c1` [Example 87, 4-(difluoromethoxy)-N-[(4-ethoxypyrimidin-5-yl)methyl]-3,5-difluorobenzamide], with 93%.
In the case of `CCOc1c(F)cncc1CNC(=O)c1cnc(OC(F)F)c(F)c1` [Example 61, 6-(difluoromethoxy)-N-[(4-ethoxy-5-fluoropyridin-3-yl)methyl]-5-fluoropyridine-3-carboxamide], the inhibition at 10 µM came out at 95%.

The values above are taken from patent US11952344B2, “Heterocyclic compound and use thereof” (TAKEDA PHARMACEUTICAL COMPANY LIMITED, priority 2019, dated 2024).
